Assay results from PubChem BioAssay (NCI).
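Method: 48-hour compound exposure of cells in 96-well plates, five concentrations, linear interpolation of endpoints. The concentration for 50% growth inhibition is given as GI50. The concentration for full growth arrest is given as TGI.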

Assays:
Experiment in all cases: inhibition of tumour cell growth, NCI panel, 48 h
786-0 renal = test system: 786-0 renal
A549 NSCLC = test system: A549 NSCLC
ACHN renal = test system: ACHN renal
BT-549 breast = test system: BT-549 breast
CAKI-1 renal = test system: CAKI-1 renal
CCRF-CEM leukemia = test system: CCRF-CEM leukemia
COLO 205 colon = test system: COLO 205 colon
DU-145 prostate = test system: DU-145 prostate
EKVX NSCLC = test system: EKVX NSCLC
HCC-2998 colon = test system: HCC-2998 colon
HCT-116 colon = test system: HCT-116 colon
HCT-15 colon = test system: HCT-15 colon
HL-60(TB) leukemia = test system: HL-60(TB) leukemia
HOP-62 NSCLC = test system: HOP-62 NSCLC
HOP-92 NSCLC = test system: HOP-92 NSCLC
HS 578T breast = test system: HS 578T breast
HT29 colon = test system: HT29 colon
IGROV1 ovarian = test system: IGROV1 ovarian
K-562 leukemia = test system: K-562 leukemia
KM12 colon = test system: KM12 colon
LOX IMVI melanoma = test system: LOX IMVI melanoma
M14 melanoma = test system: M14 melanoma
MALME-3M melanoma = test system: MALME-3M melanoma
MCF7 breast = test system: MCF7 breast
MDA-MB-231 breast = test system: MDA-MB-231 breast
MDA-MB-435 = test system: MDA-MB-435
MOLT-4 leukemia = test system: MOLT-4 leukemia
NCI-H226 lung = test system: NCI-H226 lung
NCI-H23 lung = test system: NCI-H23 lung
NCI-H460 lung = test system: NCI-H460 lung
NCI-H522 lung = test system: NCI-H522 lung
NCI/ADR-RES ovarian = test system: NCI/ADR-RES ovarian
OVCAR-3 ovarian = test system: OVCAR-3 ovarian
OVCAR-4 ovarian = test system: OVCAR-4 ovarian
OVCAR-5 ovarian = test system: OVCAR-5 ovarian
OVCAR-8 ovarian = test system: OVCAR-8 ovarian
PC-3 prostate = test system: PC-3 prostate
RPMI-8226 leukemia = test system: RPMI-8226 leukemia
RXF 393 renal = test system: RXF 393 renal
SF-268 CNS = test system: SF-268 CNS
SF-295 CNS = test system: SF-295 CNS
SF-539 CNS = test system: SF-539 CNS
SK-MEL-28 melanoma = test system: SK-MEL-28 melanoma
SK-MEL-5 melanoma = test system: SK-MEL-5 melanoma
SK-OV-3 ovarian = test system: SK-OV-3 ovarian
SN12C renal = test system: SN12C renal
SNB-19 CNS = test system: SNB-19 CNS
SNB-75 CNS = test system: SNB-75 CNS
SR leukemia = test system: SR leukemia
SW-620 colon = test system: SW-620 colon
T-47D breast = test system: T-47D breast
TK-10 renal = test system: TK-10 renal
U251 CNS = test system: U251 CNS
UACC-257 melanoma = test system: UACC-257 melanoma
UACC-62 melanoma = test system: UACC-62 melanoma
UO-31 renal = test system: UO-31 renal

## CCN(CC)CCOc1nc2cc(OC)c(OC)cc2c2c1-c1ccc(OC)cc1C2=O
786-0 renal
  GI50: 15.7 µM
  TGI: 30.3 µM
A549 NSCLC
  GI50: 1.48 µM
  TGI: 2.87 µM
ACHN renal
  GI50: 11.5 µM
  TGI: 23.8 µM
BT-549 breast
  GI50: 15.7 µM
  TGI: 29.5 µM
CAKI-1 renal
  GI50: 10.3 µM
  TGI: 22.5 µM
CCRF-CEM leukemia
  GI50: 0.54 µM
  TGI: 12.3 µM
COLO 205 colon
  GI50: 11.5 µM
  TGI: 24.6 µM
DU-145 prostate
  GI50: 5.56 µM
  TGI: 18.3 µM
EKVX NSCLC
  GI50: 14.2 µM
  TGI: 28.1 µM
HCC-2998 colon
  GI50: 14.3 µM
  TGI: 27.6 µM
HCT-116 colon
  GI50: 1.35 µM
  TGI: 2.63 µM
HCT-15 colon
  GI50: 1.79 µM
  TGI: 3.78 µM
HL-60(TB) leukemia
  GI50: 13.4 µM
  TGI: 34.6 µM
HOP-62 NSCLC
  GI50: 10 µM
  TGI: 22.2 µM
HOP-92 NSCLC
  GI50: 15.7 µM
  TGI: 32.1 µM
HS 578T breast
  GI50: 20.4 µM
  TGI: 44.9 µM
HT29 colon
  GI50: 1.67 µM
  TGI: 3.11 µM
IGROV1 ovarian
  GI50: 5.65 µM
  TGI: 20.6 µM
K-562 leukemia
  GI50: 2.06 µM
  TGI: 5.01 µM
KM12 colon
  GI50: 1.51 µM
  TGI: 2.87 µM
LOX IMVI melanoma
  GI50: 1.27 µM
  TGI: 2.7 µM
M14 melanoma
  GI50: 11.7 µM
  TGI: 24 µM
MALME-3M melanoma
  GI50: 21.1 µM
  TGI: 36.9 µM
MCF7 breast
  GI50: 0.697 µM
  TGI: 17.3 µM
MDA-MB-231 breast
  GI50: 13 µM
  TGI: 26.9 µM
MDA-MB-435
  GI50: 13.3 µM
  TGI: 26 µM
MOLT-4 leukemia
  GI50: 1.91 µM
  TGI: 17.6 µM
NCI-H226 lung
  GI50: 13.6 µM
  TGI: 35.1 µM
NCI-H23 lung
  GI50: 12.5 µM
  TGI: 27.9 µM
NCI-H460 lung
  GI50: 1.22 µM
  TGI: 2.72 µM
NCI-H522 lung
  GI50: 0.312 µM
  TGI: 18.7 µM
NCI/ADR-RES ovarian
  GI50: 13.2 µM
  TGI: 29.8 µM
OVCAR-3 ovarian
  GI50: 11.7 µM
  TGI: 24 µM
OVCAR-4 ovarian
  GI50: 13.9 µM
  TGI: 33.5 µM
OVCAR-5 ovarian
  GI50: 21.2 µM
  TGI: 36.4 µM
OVCAR-8 ovarian
  GI50: 8.62 µM
  TGI: 21.4 µM
PC-3 prostate
  GI50: 12.3 µM
  TGI: 26.8 µM
RPMI-8226 leukemia
  GI50: 3.26 µM
  TGI: 19.6 µM
RXF 393 renal
  GI50: 12.8 µM
  TGI: 25.9 µM
SF-268 CNS
  GI50: 4.93 µM
  TGI: 21.9 µM
SF-295 CNS
  GI50: 0.117 µM
  TGI: 0.597 µM
SF-539 CNS
  GI50: 8.62 µM
  TGI: 23.6 µM
SK-MEL-28 melanoma
  GI50: 21.5 µM
  TGI: 36.4 µM
SK-MEL-5 melanoma
  GI50: 16.1 µM
  TGI: 30.2 µM
SK-OV-3 ovarian
  GI50: 13.2 µM
  TGI: 26 µM
SN12C renal
  GI50: 5.29 µM
  TGI: 21.1 µM
SNB-19 CNS
  GI50: 10.5 µM
  TGI: 23.7 µM
SNB-75 CNS
  GI50: 16.8 µM
  TGI: 33.1 µM
SR leukemia
  GI50: 0.583 µM
  TGI: 3.4 µM
SW-620 colon
  GI50: 1.21 µM
  TGI: 2.68 µM
T-47D breast
  GI50: 18.4 µM
  TGI: 38.2 µM
TK-10 renal
  GI50: 16.1 µM
  TGI: 29.6 µM
U251 CNS
  GI50: 2.42 µM
  TGI: 18.7 µM
UACC-257 melanoma
  GI50: 19.8 µM
  TGI: 34.3 µM
UACC-62 melanoma
  GI50: 15.5 µM
  TGI: 36.3 µM
UO-31 renal
  GI50: 1.77 µM
  TGI: 14.2 µM
